# Test results published in paper PMC12040169 (PLOS Biology, 2025).
# Test: in vitro
# Details: human, hela cells, % viability
row,Compound,"viability at 28.5 h, 10 µM"
1,Cc1nc2ccc(NC(=O)CCn3nc(C)c(Cl)c3C)cc2s1 [CBK281634],106%
2,CS(=O)(=O)N1CCN(Cc2cc(Br)ccc2O)CC1 [CBK263620G],93.9%
3,Cc1ccc(NC(=O)CSc2nnc(-c3cnccn3)s2)cc1 [CBK269872],83.3%
4,Cc1csc(C(Cc2cccs2)NC(=O)Cc2c(C)[nH]c(=O)[nH]c2=O)n1 (stereo not shown) [CBK286345],89.7%
5,COc1ccc(CSCc2n[nH]c(=O)[nH]2)cc1[N+](=O)[O-] [CBK267425],101%
6,O=C(CN1CCOCC1)N1CCC(c2cccc(Cc3ccc(C(F)(F)F)cc3)n2)CC1 [CBK286508],101%
7,Cn1cccc1C(=O)NCc1ccccc1OC1CCNC1 (stereo not shown) [CBK029463T],88.7%
8,CC(Cn1cccn1)NS(=O)(=O)c1ccc(N2CCCC2=O)cc1 (stereo not shown) [CBK305606],83.7%
9,N#Cc1cccc(Nc2cncc(-c3cccs3)n2)c1 [CBK066030],95.4%
10,COc1ccccc1CC(=O)N[C@@H]1CCN(Cc2cccnc2)C[C@H]1O [CBK307200],100%
11,Cc1ccc(-n2nc(C(=O)NC3(C#N)CCSC3)cc2C)cc1 (stereo not shown) [CBK306403],86.9%
12,CC1CCc2c(sc(NC(=O)c3ccn(C)n3)c2C#N)C1 (stereo not shown) [CBK304682],89.8%
13,CC(=O)NCCSc1nc2cc(Cl)c(Cl)cc2nc1N1CCCC1 [CBK103701],96.3%
14,O=C(O)CNS(=O)(=O)c1ccc(Cl)c(Cl)c1 [CBK266981],86.2%
15,O=C(O)CCC(=O)Nc1cccc(NC(=O)c2ccc(Br)cc2)c1 [CBK300180],84.6%
16,CCCc1cc(C(=O)N2CCCC(COc3cccc(F)c3)C2)[nH]n1 (stereo not shown) [CBK306776],85.3%
17,CC1(C)C/C(=N/O)c2cc3c(nc2C1)CC(C)(C)C/C3=N\O [CBK261629],106%
18,O=C(Nc1cc(Oc2cccnc2)cc([N+](=O)[O-])c1)c1sc2ccccc2c1Cl [CBK300485],106%
19,CN1C(=O)CC2(C1=O)C(=O)N(Cc1ccc3ccccc3n1)c1ccc(Cl)cc12 (stereo not shown) [CBK075494],102%
20,CC1CCc2c(sc3ncnc(OCC(=O)N4CCCCC4)c23)C1 (stereo not shown) [CBK304979],87.5%
21,COC(=O)CCc1ccc(-c2cnc(N)c(-c3ccc(O)cc3)n2)cc1 [CBK122809],88.9%
22,CS(=O)(=O)N1CC2(CCN(CCO)CC2)c2ccccc21 [CBK126677],94.5%

row,Compound,"viability at 28.5 h, 10 µM"
1,O=C(Nc1ccc(N2CCNCC2)nc1)c1cccs1 [CBK029430T],111%
2,O=C(NCc1ccccc1OC1CCNC1)C1CCCO1 (stereo not shown) [CBK024503T],96.9%
3,COc1ccc(/C=C(/C#N)C(=O)Nc2cccc(C)c2C)cc1C(=O)O [CBK262751],87.4%
4,O=C(CCCN1C(=O)c2ccccc2C1=O)Nc1ccc(C(=O)O)cc1 [CBK287043],94.2%
5,CCN1CCN(c2c(Cl)cccc2NC(=O)c2ccc(-c3cccc([N+](=O)[O-])c3)o2)CC1 [CBK268596],86.4%
6,COc1ccc(-c2oc3ncn4nc(COc5ccccc5C)nc4c3c2-c2ccc(OC)cc2)cc1 [CBK265283],94.8%
7,O=C(CSc1nnc(-c2cccc(F)c2)o1)c1ccccc1 [CBK068764],105%
8,Nc1ncc(-c2cccc(O)c2)nc1N1CCOCC1 [CBK063376],100%
9,CCCOc1ccc(-c2nn(-c3ccccc3)cc2/C=C2\SC(=S)N(CC(=O)O)C2=O)cc1 [CBK264525],111%
10,O=C(CS(=O)(=O)c1ccccc1)Nc1ccc(OCc2ccccc2)cc1 [CBK269421],98.4%
11,Cc1cc2nc3s/c(=C\c4ccc(-c5ccc(O)c(C(=O)O)c5)o4)c(=O)n3c2cc1C [CBK262538],100%
12,Cc1nc(C)n(CC2CCCN(Cc3cn4ccccc4n3)C2)n1 (stereo not shown) [CBK304028],88.3%
13,O=C(c1ccccc1)N1CCN(C(=O)c2ccco2)CC1 [CBK068314],96.6%
14,CC(C)NC(=O)Cn1c(-c2cccs2)cc2cccnc21 [CBK282454],97.3%
15,CC(=O)Nc1ccc(S(=O)(=O)N2CCN(C/C=C/c3ccccc3)CC2)cc1 [CBK261545],114%
16,O=C(CC1(O)C(=O)N(Cc2ccccc2Cl)c2ccccc21)c1cc2ccccc2oc1=O (stereo not shown) [CBK265255],96.2%
17,c1ccc(-c2cn3ccnc3c(NCC3CCOCC3)n2)cc1 [CBK037356],99.1%
18,O=C(Cn1cccc(C(=O)NC2CCCC2)c1=O)NCC1(c2ccccc2)CCCC1 [CBK285975],96.2%
19,COc1cc(C(=O)O)ccc1Oc1cnn(-c2ccccc2)c(=O)c1Cl [CBK287032],94.9%
20,Cn1ccc(CN2CCOC(c3nc(C(C)(C)C)n[nH]3)C2)cc1=O (stereo not shown) [CBK304495],84.5%
21,CCCCC[C@H](O)CCC1[C@H](O)C[C@@H]2Cc3c(cccc3OCC(=O)O)C[C@H]12 (stereo partly shown) [CBK011575],98.3%
22,O=C1N[C@]2(CCc3ccccc31)CN(Cc1ccsc1)C[C@H]2CO [CBK284793],90.7%

row,Compound,"viability at 28.5 h, 10 µM"
1,CCn1cc(-c2cncn2CC(C)N2CCC(C)CC2)cn1 (stereo not shown) [CBK281565],91.7%
2,CN(C)CCCNc1nc(-c2cccc(Cl)c2)nc2ccccc12 [CBK267284C],81.5%
3,Cc1cnc(C(=O)N[C@H]2C3CCCCC3[C@@H]2c2ccccc2)cn1 (stereo partly shown) [CBK285125],102%
4,COC(=O)c1cc(Br)c(NC(=O)c2cccs2)cc1OC [CBK066842],86.6%
5,Oc1cccc(-c2nccnc2NCc2cccc(C(F)(F)F)c2)c1 [CBK037014],86.9%
6,O=C(CCN1C(=O)/C(=C\C=C\c2ccccc2)SC1=S)Nc1ccc(C(=O)O)cc1 [CBK264818],104%
7,Cc1nn(C)c(N2CCNCC2)c1NC(=O)c1cccs1 [CBK050303T],91.9%
8,CCN(CC)C(=O)c1sccc1NS(=O)(=O)Cc1ccccc1 [CBK050393],106%
9,O=C(NC(c1ccc(F)cc1)c1cccs1)c1ccccn1 (stereo not shown) [CBK295636],106%
10,CC(=O)c1cc(CCCO)n(Cc2ccco2)c1C [CBK022013],115%
11,Cn1nc(-c2cccs2)cc1[C@H]1CN2CC[C@H]1C[C@@H]2CNC(=O)Nc1ccccc1 [CBK289104],89%
12,[O-][n+]1c2c([n+]([O-])c3c1CCCC3)CCCC2 [CBK261714],99.5%
13,COCc1cc(C)nc(OCC(=O)N2CCCCC2)c1C#N [CBK270228],104%
14,O=C(c1cc(-c2ccccc2)n[nH]c1=O)N1CCc2ccccc2C1 [CBK291216],91.2%
15,CC(C)n1c(=O)oc2cc(S(=O)(=O)NC(c3ccccc3)c3ccccc3)ccc21 [CBK286350],91.7%
16,COc1cc([N+](=O)[O-])cc(CN2CCN(CCO)CC2)c1O [CBK261851],92.4%
17,O=C(O)c1nccnc1-c1ccc(COc2cccc3ccccc23)cc1 [CBK050810],95.4%
18,CC1(C(=O)O)CCC(C(=O)O)C1(C)C (stereo not shown) [CBK261830],96.1%
19,Cc1ccc(S(=O)(=O)Nc2ccc(N3C[C@@H](C)N[C@@H](C)C3)c3ccccc23)cc1 [CBK001486C],87.8%
20,CCc1nc2ccc(C(=O)NCCN3CCOCC3)cn2c1N(C=O)Cc1ccc(OC)cc1 [CBK146625],97.9%
21,N#CC1CCCc2c1[nH]c1ccc(Br)cc21 (stereo not shown) [CBK026475],64.7%
22,CONc1nc(NC(C)(C)C)nc(OCC#N)n1 [CBK263655],85.9%

row,Compound,"viability at 28.5 h, 10 µM"
1,COc1cc([N+](=O)[O-])ccc1-c1ccc(/C=c2\sc3nc4cc(Br)cnc4n3c2=O)o1 [CBK262579],103%
2,C/C(=N\Nc1nc(-c2ccccc2)cs1)c1ccccc1 [CBK262104],88.8%
3,O=C(CCN1C(=O)/C(=C/c2ccc(F)cc2)SC1=S)NNC(=O)c1ccncc1 [CBK262821],92.4%
4,CC(=O)Nc1ccc(Oc2cc(C)nc(C3CCCNC3)c2)cc1 (stereo not shown) [CBK283443],88.1%
5,NC(=O)C1(Cc2ccc(-c3ccccc3)cc2)CCN(C(=O)COc2ccccc2)CC1 [CBK285773],95.9%
6,O=S(=O)(NCCn1c(-c2ccncc2)nc2ccccc21)c1ccccc1 [CBK288578],87.2%
7,N#Cc1cccnc1SC(C(=O)O)c1ccccc1 (stereo not shown) [CBK286614],106%
8,Cc1ccc(S(=O)(=O)Nc2sc3c(c2C(=O)N2CCN(C)CC2)CCCC3)cc1[N+](=O)[O-] [CBK028650],93.9%
9,CCC(=O)Nc1nnc(-c2ccc3c(c2)OCCO3)o1 [CBK287404],92.6%
10,O=C(CN1C(=O)COc2ccc(Cl)cc21)Nc1ccc2[nH]c(=O)[nH]c2c1 [CBK268295],111%
11,CCOCCCNC(=O)c1ccc(-c2cc(Oc3ccc(OC)cc3)ncn2)cc1 [CBK291209],100%
12,O=C(Nc1ccccc1C(=O)N1CCCC1)c1ccccc1CCc1ccccc1 [CBK268608],104%
13,O=c1[nH]c(=O)n([C@H]2C[C@@H](O)[C@@H](CO)O2)cc1CO [CBK201332],94%
14,CN1C[C@@H](NC(=O)c2ccc(C#N)cc2)C[C@H]1c1nc(-c2ccc(F)cc2)no1 [CBK288865],92.1%
15,O=C1NCCN(C(=O)c2cccc3cccnc23)C1Cc1ccc(-c2cccs2)cc1 (stereo not shown) [CBK285809],81.4%
16,O=C(NCCC1SC(NC2CCCCCC2)=NC1=O)Nc1ccc(F)cc1F (stereo not shown) [CBK067469],99.7%
17,Cc1onc(-c2ccccc2)c1CNC(=O)c1cncnc1 [CBK144098],90.6%
18,O=P(O)(CNCc1ccccc1)CNCc1ccccc1 [CBK261604C],118%
19,O=c1[nH]c(CNc2ccccc2)nc2ccccc12 [CBK288038],103%
20,CS(=O)(=O)N1CCc2cc(-c3csc(NCC(F)(F)F)n3)ccc21 [CBK305650],95.4%
21,O=C(c1ccc(F)cc1)C1CCN(CCC(c2ccccc2)c2ccccc2)CC1 [CBK149138],92.3%
22,N#CCCCN1CCC(Oc2nccnc2OCc2ccc(-c3ccccc3)cc2)CC1 [CBK161566],95.4%
